Test results: ChEMBL document CHEMBL1201862, “PubChem BioAssay data set” (2004)
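Compound exposure: 48 hours, 5 concentrations, 96-well plates. At the GI50, growth is halved.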 The source made the active and inactive calls. No stated cut-off is given here; in the data, active = GI50 up to about 1.1 µM and inactive = higher.

Legend:
Test in all cases: growth of human tumour cells (NCI), 48 h
MDA-N = system: MDA-N
RPMI-8226 = system: RPMI-8226
MCF7 = system: MCF7
DU-145 = system: DU-145
HCC 2998 = system: HCC 2998
SR = system: SR
T47D = system: T47D
SF-268 = system: SF-268
SK-MEL-5 = system: SK-MEL-5
MOLT-4 = system: MOLT-4
A549 = system: A549
NCI/ADR-RES = system: NCI/ADR-RES
COLO 205 = system: COLO 205
NCI-H460 = system: NCI-H460

Measured: GI50

CN1CN(c2ccccc2)C2(CCN(CCCC(=O)c3cccs3)CC2)C1=O
inactive: MDA-N 68.7 µM | RPMI-8226 29.8 µM | MCF7 25.2 µM | DU-145 36.6 µM | HCC 2998 19.5 µM | SR 53.5 µM | T47D 29 µM | SF-268 74.8 µM | SK-MEL-5 22.9 µM | MOLT-4 32.8 µM | A549 29.3 µM | NCI/ADR-RES 41 µM | COLO 205 17.3 µM

CC1(c2nc3ccccc3[nH]2)CCC(C#N)C(C)(C)O1 (configuration not stated)
inactive: MDA-N > 100 µM | RPMI-8226 > 100 µM | MCF7 > 100 µM | DU-145 > 100 µM | HCC 2998 > 100 µM | SR > 100 µM | T47D > 100 µM | SF-268 > 100 µM | SK-MEL-5 > 100 µM | MOLT-4 > 100 µM | A549 > 100 µM | NCI/ADR-RES > 100 µM | COLO 205 > 100 µM

Oc1cc(O)c2c(c1)O[C@H](c1ccc(O)c(O)c1)[C@@H](O)C2 [CIANIDANOL]
inactive: MDA-N > 100 µM | RPMI-8226 > 100 µM | MCF7 > 100 µM | DU-145 > 100 µM | HCC 2998 > 100 µM | SR > 100 µM | T47D > 100 µM | SF-268 > 100 µM | SK-MEL-5 > 100 µM | MOLT-4 > 100 µM | A549 > 100 µM | NCI-H460 > 100 µM | NCI/ADR-RES > 100 µM | COLO 205 > 100 µM

COC(=O)Cc1c([C@H]2[C@H](CC(=O)OC)c3ccccc3N2C(=O)C(F)(F)F)[nH]c2ccccc12
inactive: MDA-N 32.3 µM | RPMI-8226 17.7 µM | MCF7 26 µM | DU-145 63 µM | HCC 2998 32.1 µM | SR 14.7 µM | T47D 36.5 µM | SF-268 27.4 µM | SK-MEL-5 11.6 µM | MOLT-4 9.02 µM | A549 31.3 µM | NCI-H460 22.4 µM | NCI/ADR-RES 21.5 µM | COLO 205 18.2 µM

CC(C(=O)NCCNC(=O)CCC(=O)N(C)O)C(=O)NCCNC(=O)CCC(=O)N(C)O
inactive: MDA-N > 100 µM | RPMI-8226 > 100 µM | MCF7 > 100 µM | DU-145 > 100 µM | HCC 2998 > 100 µM | SR > 100 µM | T47D > 100 µM | SF-268 > 100 µM | SK-MEL-5 97.9 µM | MOLT-4 > 100 µM | A549 > 100 µM | NCI-H460 > 100 µM | NCI/ADR-RES > 100 µM | COLO 205 > 100 µM

COc1ccc(N(C)C(=O)N(C)c2ccc([N+](=O)[O-])cc2)cc1
inactive: MDA-N 9.25 µM | RPMI-8226 51.1 µM | MCF7 39.1 µM | DU-145 90.6 µM | HCC 2998 33 µM | SR 19.5 µM | T47D 66.4 µM | SF-268 82 µM | SK-MEL-5 38.8 µM | MOLT-4 > 100 µM | A549 58.1 µM | NCI-H460 25.8 µM | NCI/ADR-RES 23.6 µM

CNc1ccc2c(c1)[C@@]1(C)c3ccccc3[C@@H](C2)N1C
inactive: MDA-N 24.4 µM | RPMI-8226 15.7 µM | MCF7 29.7 µM | DU-145 39.5 µM | HCC 2998 20.1 µM | SR 22.6 µM | T47D 28.1 µM | SF-268 44.4 µM | SK-MEL-5 17.7 µM | MOLT-4 17.5 µM | A549 30.2 µM | NCI-H460 18.4 µM | NCI/ADR-RES 27.4 µM

CCOC(=O)c1csc(NC(=O)CCN2CCCCC2)n1
inactive: MDA-N > 100 µM | RPMI-8226 > 100 µM | MCF7 > 100 µM | DU-145 > 100 µM | HCC 2998 > 100 µM | SR > 100 µM | T47D > 100 µM | SK-MEL-5 > 100 µM | MOLT-4 73.3 µM | A549 > 100 µM | NCI-H460 > 100 µM | NCI/ADR-RES > 100 µM | COLO 205 > 100 µM
